Experimental data taken from ChEMBL document CHEMBL3779818, “Design, synthesis and evaluation of a novel stacking nano-intercalator as an anti-tumor agent” (Medchemcomm, 2016).
The source made the active and inactive calls. The calls are words filed in the database; no cut-off is given here.

Tests used:
Mus musculus [1] = assay: Cardiotoxicity in ICR mouse xenografted with mouse S180 cells; format: toxicity, organism-based, CCRF S-180; settings: in vivo
HeLa [2] = assay: Antiproliferative activity against human HeLa cells assessed as cell viability after 48 hrs by MTT assay; format: functional, cell-based
Mus musculus [3] = assay: Acute toxicity in ICR mouse assessed as change in serum AST level at 100 umol/kg, po administered as single dose measured on 7th day; format: organism-based; settings: in vivo
Spleen = assay: Drug uptake in ICR mouse spleen xenografted with mouse S180 cells at 1 umol/kg/day, po after 7 days; format: ADME, organism-based, CCRF S-180; settings: in vivo, 168 h
Heart = assay: Drug uptake in ICR mouse heart xenografted with mouse S180 cells at 1 umol/kg/day, po after 7 days; format: ADME, organism-based, CCRF S-180; settings: in vivo, 168 h
CCRF S-180 [4] = assay: Antiproliferative activity against mouse S180 cells assessed as cell viability after 48 hrs by MTT assay; format: functional, cell-based; settings: CCRF S-180, 48 h
Mus musculus [5] = assay: Acute toxicity in ICR mouse assessed as change in serum ALT level at 100 umol/kg, po administered as single dose measured on 7th day; format: organism-based; settings: in vivo
[6] = Retention time of compound by HPLC method; format: physicochemical
CCRF S-180 [7] = assay: Antiproliferative activity against mouse S180 cells at 3.5 uM after 24 hrs by confocal microscopy; format: functional, cell-based
Brain = assay: Drug uptake in ICR mouse brain xenografted with mouse S180 cells at 1 umol/kg/day, po after 7 days; format: ADME, organism-based, CCRF S-180; settings: in vivo, 168 h
Mus musculus [8] = assay: Acute toxicity in ICR mouse xenografted with S180 cells assessed as heart weight at 100 umol/kg, po; format: organism-based, CCRF S-180; settings: in vivo
Calf thymus DNA [9] = assay: Induction of DNA intercalation of calf thymus DNA assessed as decrease in absorption at 7.4 uM measured at 258 nm using 200 uM calf thymus DNA by UV spectrophotometry; format: nucleic-acid assay; settings: Bos taurus
Mus musculus [10] = assay: Acute toxicity in ICR mouse xenografted with S180 cells assessed as spleen weight at 100 umol/kg, po; format: organism-based, CCRF S-180; settings: in vivo
Tumour = assay: Drug level in tumor in ICR mouse xenografted with S180 cells at 1 umol/kg/day, po after 7 days; format: ADME, organism-based, Neoplasm, CCRF S-180; settings: in vivo, 168 h
Blood = assay: Drug uptake in ICR mouse blood xenografted with mouse S180 cells at 1 umol/kg/day, po after 7 days; format: ADME, organism-based, CCRF S-180; settings: in vivo, 168 h
Calf thymus DNA [11] = assay: Induction of DNA intercalation of calf thymus DNA assessed as increase in absorption at 7.4 uM measured at 208 nm using 200 uM calf thymus DNA by UV spectrophotometry; format: nucleic-acid assay; settings: Bos taurus
Calf thymus DNA [12] = assay: Induction of DNA intercalation of calf thymus DNA assessed as increase in absorption at 0.9 uM using 4 uM calf thymus DNA measured at 208 nm by UV spectrophotometry; format: nucleic-acid assay; settings: Bos taurus
Calf thymus DNA [13] = assay: Induction of DNA intercalation of calf thymus DNA assessed as increase in absorption at 0.9 uM using 4 uM calf thymus DNA measured at 258 nm by UV spectrophotometry; format: nucleic-acid assay; settings: Bos taurus
Calf thymus DNA [14] = assay: Induction of DNA intercalation of calf thymus DNA assessed as increase in fluorescence intensity at 345 nm using 80 uM calf thymus DNA by fluorescence spectroscopy; format: nucleic-acid assay; settings: Bos taurus
Mus musculus [15] = assay: Acute toxicity in ICR mouse assessed as normal behavior at 100 umol/kg, po administered as single dose observed for 7 days; format: organism-based; settings: in vivo, 168 h
Lung = assay: Drug uptake in ICR mouse lung xenografted with mouse S180 cells at 1 umol/kg/day, po after 7 days; format: ADME, organism-based, CCRF S-180; settings: in vivo, 168 h
Mus musculus [16] = assay: Acute toxicity in ICR mouse xenografted with S180 cells assessed as kidney weight at 100 umol/kg, po; format: organism-based, CCRF S-180; settings: in vivo
Mus musculus [17] = assay: Acute toxicity in ICR mouse assessed as change in serum creatinine level at 100 umol/kg, po administered as single dose measured on 7th day; format: organism-based; settings: in vivo
Mus musculus [18] = assay: Acute toxicity in ICR mouse xenografted with S180 cells assessed as liver weight at 100 umol/kg, po; format: organism-based, CCRF S-180; settings: in vivo
Mus musculus [19] = assay: Acute toxicity in ICR mouse xenografted with S180 cells assessed as brain weight at 100 umol/kg, po; format: organism-based, CCRF S-180; settings: in vivo
CCRF S-180 [20] = assay: Antitumor activity against mouse S180 cells xenografted in po dosed ICR mouse assessed as decrease in tumor growth administered daily for 14 days; format: functional, organism-based
Mus musculus [21] = assay: Acute toxicity in ICR mouse assessed as morphological changes in organs at 100 umol/kg, po administered as single dose observed for 7 days; format: organism-based; settings: in vivo, 168 h
Liver = assay: Drug uptake in ICR mouse liver xenografted with mouse S180 cells at 1 umol/kg/day, po after 7 days; format: ADME, organism-based, CCRF S-180; settings: in vivo, 168 h
Calf thymus DNA [22] = assay: Induction of DNA intercalation of calf thymus DNA assessed as decrease in fluorescence intensity at 345 nm measured at 0.18 uM by fluorescence spectroscopy; format: nucleic-acid assay; settings: Bos taurus
HeLa [23] = assay: Antiproliferative activity against human HeLa cells at 3.5 uM after 24 hrs by confocal microscopy; format: functional, cell-based
CCRF S-180 [24] = assay: Potency index, ratio of activity of Doxorubicin to test compound for antitumor activity against mouse S180 cells; format: functional
Kidney = assay: Drug uptake in ICR mouse kidney xenografted with mouse S180 cells at 1 umol/kg/day, po after 7 days; format: ADME, organism-based, CCRF S-180; settings: in vivo, 168 h

SMILES: COc1cccc2c1C(=O)c1c(O)c3c(c(O)c1C2=O)C[C@@](O)(C(=O)CO)C[C@@H]3O[C@H]1C[C@H](N)[C@H](O)[C@H](C)O1 [DOXORUBICIN]
- Activity (Mus musculus [1]): Toxic

SMILES: O=C1[C@@H]2Cc3c([nH]c4ccccc34)CN2C(=O)[C@@H]2Cc3c([nH]c4ccccc34)CN12
- IC50 (HeLa [2]): 3.5 µM
- Activity (Mus musculus [3]): Non-toxic
- Drug uptake (Spleen): Not Active
- Drug uptake (Heart): Not Active
- IC50 (CCRF S-180 [4]): 0.39 µM
- Activity (Mus musculus [5]): Non-toxic
- Retention_time [6]: 5.704 min
- Activity (CCRF S-180 [7]): Active
- Drug uptake (Brain): Not Active
- Activity (Mus musculus [8]): Non-toxic
- Activity (Calf thymus DNA [9]): Active
- Activity (Mus musculus [10]): Non-toxic
- Drug uptake (Tumour): Active
- Drug uptake (Blood): Not Active
- Activity (Calf thymus DNA [11]): Active
- Activity (Calf thymus DNA [12]): Active
- Activity (Calf thymus DNA [13]): Active
- Activity (Calf thymus DNA [14]): Active
- Activity (Mus musculus [15]): Non-toxic
- Drug uptake (Lung): Not Active
- Activity (Mus musculus [16]): Non-toxic
- Activity (Mus musculus [17]): Non-toxic
- Activity (Mus musculus [18]): Non-toxic
- Activity (Mus musculus [19]): Non-toxic
- Activity (Mus musculus [1]): Non-toxic
- Activity (CCRF S-180 [20]): Dose-dependent effect
- Activity (Mus musculus [21]): Non-toxic
- Drug uptake (Liver): Not Active
- Activity (Calf thymus DNA [22]): Active
- Activity (HeLa [23]): Active
- Ratio (CCRF S-180 [24]): 2
- Drug uptake (Kidney): Not Active
